In patent US20260285853A1, “COMPOUNDS AND METHODS FOR MODULATING SPLICING” (REMIX THERAPEUTICS INC., priority 2023, published 2026):
Where two headings read alike, the source gives them in different places.

Experiments:
Type in all cases: cell-based
MYB mRNA [1] = assay: Gene panel canonical junction qPCR assay, decrease in CJ mRNA, Table 3
In short: (§1)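 A673 cells were plated, left to adhere for 24 h, then dosed; K562 cells were plated in 96- or 384-well format and dosed directly. Both were incubated 24 h at 37 °C with an 11-point 3-fold series (top 10 uM final). Canonical junction mRNA was then read by cDNA synthesis and qPCR.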

HTT mRNA [2] = assay: as above
In short: as §1

HTT mRNA [3] = assay: Splicing RT-qPCR assay (THP), Table 2A
[4] = system: SH-SY5Y (human neuroblastoma) cells; assay: Cell viability, Cell Titer Glo 2.0 assay; conditions: read-out: Viability SHSY5Y.3 GI50
In short: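 SH-SY5Y neuroblastoma cells are exposed to test compounds for 72 hours at 37 °C and 5% CO2, with final DMSO held at 0.1%. Cell viability is then measured with the CellTiter-Glo 2.0 assay.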

MYB mRNA [5] = assay: Splicing RT-qPCR assay (THP), Table 2A
[6] = decrease in canonical junction (CJ) mRNA, gene panel qPCR, Table 3
[7] = Table 2A (THP), AJ mRNA increase, read-out: HTT AJ (increase in alternative junction mRNA, AC50)
[8] = Table 2A (THP), CJ mRNA decrease, read-out: HTT CJ (decrease in canonical junction mRNA, IC50)
[9] = Table 2A (THP), AJ mRNA increase, read-out: MYB AJ (increase in alternative junction mRNA, AC50)
[10] = Table 2A (THP), CJ mRNA decrease, read-out: MYB CJ (decrease in canonical junction mRNA, IC50)
[11] = decrease in CJ mRNA levels, canonical junction qPCR, gene panel
[12] = Table 2A, THP, HTT alternative junction (AJ) mRNA, read-out: HTT AJ (AC50, increase in alternative junction mRNA)
[13] = Table 2A, THP, HTT canonical junction (CJ) mRNA, read-out: HTT CJ (IC50, decrease in canonical junction mRNA)
[14] = Table 2A, THP, MYB alternative junction (AJ) mRNA, read-out: MYB AJ (AC50, increase in alternative junction mRNA)
[15] = Table 2A, THP, MYB canonical junction (CJ) mRNA, read-out: MYB CJ (IC50, decrease in canonical junction mRNA)

Row | IC50 (MYB mRNA [1]; [6]) | IC50 (HTT mRNA [2]; [6]) | IC50 (HTT mRNA [3]; [8]) | GI50 [4] | IC50 (MYB mRNA [5]; [10]) | IC50 (MYB mRNA [1]; [11]) | IC50 (HTT mRNA [2]; [11]) | IC50 (HTT mRNA [3]; [13]) | IC50 (MYB mRNA [5]; [15]) | SMILES | AC50 (HTT mRNA [3]; [7]) | AC50 (MYB mRNA [5]; [9]) | AC50 (HTT mRNA [3]; [12]) | AC50 (MYB mRNA [5]; [14])
1 | > 10000 nM | > 10000 nM | > 10000 nM | > 10000 nM | > 10000 nM |  |  |  |  | COc1ccncc1NC(=O)c1c(F)cc(N2CCC(NC3CC3)CC2)c2cn(C)nc12 [Compound 414, 4-[4-(cyclopropylamino)-1-piperidyl]-6-fluoro-N-(4-methoxy-3-pyridyl)-2-methyl-indazole-7-carboxamide] | > 10000 nM | > 10000 nM |  | 
2 | 100 to 1000 nM | 100 to 1000 nM | 100 to 1000 nM | 100 to 1000 nM | 100 to 1000 nM |  |  |  |  | CNC1CCN(c2ccc(C(=O)Nc3cn4cc(C)nc(C)c4n3)c3nn(C)cc23)C1 (centres unmarked) [Compound 505] | 100 to 1000 nM | 100 to 1000 nM |  | 
3 |  |  |  | > 10000 nM |  | > 10000 nM | > 10000 nM | > 10000 nM | > 10000 nM | Cc1c2cc(NC(=O)c3ccc(N4CCC(NC5CC5)CC4)c4cn(C)nc34)cc(CNS(C)(=O)=O)c2nn1C [Compound 869] |  |  | > 10000 nM | > 10000 nM
4 | 100 to 1000 nM | > 10000 nM | > 10000 nM | 100 to 1000 nM | 100 to 1000 nM |  |  |  |  | COc1cc2nc(C)cn2cc1NC(=O)c1c(F)cc(N2CCC(NC3CC3)CC2)c2cn(C)nc12 [Compound 395, 4-[4-(cyclopropylamino)-1-piperidyl]-6-fluoro-N-(7-methoxy-2-methyl-imidazo[1,2-a]pyridin-6-yl)-2-methyl-indazole-7-carboxamide] | > 10000 nM | < 100 nM |  | 
5 | 1000 to 10000 nM | 1000 to 10000 nM | 1000 to 10000 nM | 1000 to 10000 nM | 1000 to 10000 nM |  |  |  |  | CCNC1CCN(c2cc(F)c(C(=O)Nc3cn4ccncc4n3)c3nn(C)cc23)CC1 [Compound 381, 4-[4-(ethylamino)-1-piper-idyl]-6-fluoro-N-imidazo [1,2-a]-pyrazin-2-yl-2-methyl-indazole-7-carboxamide] | 1000 to 10000 nM | 1000 to 10000 nM |  | 
6 | 100 to 1000 nM | 1000 to 10000 nM | 1000 to 10000 nM | > 10000 nM | 100 to 1000 nM |  |  |  |  | COc1cc2nn(C)cc2cc1NC(=O)c1ccc(N2CC3CNCC3C2)c2cn(C)nc12 (centres unmarked) [Compound 514] | 1000 to 10000 nM | 100 to 1000 nM |  | 
7 |  |  |  | 100 to 1000 nM |  | < 100 nM | > 10000 nM | > 10000 nM | < 100 nM | COc1nc2c(C(=O)Nc3cc(CO)c4nn(C)cc4c3)ccc(N3C[C@H](C)N[C@@H](C)C3)c2s1 [Compound 783, 7-((3S,5S)-3,5-dimethylpiperazin-1-yl)-N-(7-(hydroxymethyl)-2-methyl-2H-indazol-5-yl)-2-methoxybenzo[d]thiazole-4-carboxamide] |  |  | 1000 to 10000 nM | < 100 nM
8 | 100 to 1000 nM | 1000 to 10000 nM | 1000 to 10000 nM | 1000 to 10000 nM | 100 to 1000 nM |  |  |  |  | CNC1CCN(c2ccc(C(=O)Nc3cc4cn(C)nc4cc3OC)c3nn(C)cc23)C1 (centres unmarked) [Compound 518] | 1000 to 10000 nM | < 100 nM |  | 
9 |  |  |  | 100 to 1000 nM |  | 100 to 1000 nM | 100 to 1000 nM | 100 to 1000 nM | 100 to 1000 nM | Cc1cn2cc(NC(=O)c3ccc(N4CCC(NC5CC5)CC4)n4nc(C)nc34)nc2c(C)n1 [Compound 641, 5-[4-(cyclopropylamino)-1-piperidyl]-N-(6,8-dimethylimidazo-[1,2-a]pyrazin-2-yl)-2-methyl-[1,2,4]-triazolo[1,5-a]pyridine-8-carboxamide] |  |  | 100 to 1000 nM | 100 to 1000 nM
10 | > 10000 nM | > 10000 nM | > 10000 nM | > 10000 nM | > 10000 nM |  |  |  |  | CCNC1CCN(c2ccc(C(=O)Nc3cc(CC(N)=O)c4nc(C)cn4c3)c3nn(C)cc23)CC1 [Compound 340, N-[8-(2-amino-2-oxo-ethyl)-2-methyl-imidazo[1,2-a]pyridin-6-yl]-4-[4-(ethylamino)-1-piperidyl]-2-methyl-indazole-7-carboxamide] | > 10000 nM | > 10000 nM |  | 
11 | > 10000 nM | > 10000 nM | > 10000 nM | > 10000 nM | > 10000 nM |  |  |  |  | COc1cn2nc(C)nc2cc1NC(=O)c1ccc(N2CCC(NC3CC3)CC2)c2cn(C)nc12 [Compound 573, 4-[4-(cyclopropylamino)-1-piperidyl]-N-(6-methoxy-2-methyl-[1,2,4]triazolo-[1,5-a]-pyridin-7-yl)-2-methyl-indazole-7-carboxamide] | > 10000 nM | > 10000 nM |  | 
12 | > 10000 nM | > 10000 nM | > 10000 nM | > 10000 nM | > 10000 nM |  |  |  |  | Cn1cc2cc(NC(=O)c3c(F)cc(N4CCC(NC5CC5)CC4)c4cn(C)nc34)c(OC3CC3)cc2n1 [Compound 438, N-[6-(cyclopropoxy)-2-methyl-indazol-5-yl]-4-[4-(cyclopropylamino)-1-piperidyl]-6-fluoro-2-methyl-indazole-7-carboxamide] | > 10000 nM | > 10000 nM |  | 
13 | 1000 to 10000 nM | > 10000 nM | > 10000 nM | 1000 to 10000 nM | 1000 to 10000 nM |  |  |  |  | CC1OB(O)c2cc(NC(=O)c3c(F)cc(N4CCC(NC5CC5)CC4)c4cn(C)nc34)ccc21 (centres unmarked) [Compound 490, 4-(4-(cyclopropylamino)piperidin-1-yl)-6-fluoro-N-(1-hydroxy-3-methyl-1,3-dihydrobenzo[c]-[1,2]oxaborol-6-yl)-2-methyl-2H-indazole-7-carboxamide 2,2,2-trifluoroacetate] | > 10000 nM | > 10000 nM |  | 
14 |  |  |  | 100 to 1000 nM |  | < 100 nM | < 100 nM | < 100 nM | < 100 nM | COc1c(NC(=O)c2ccc(N3CCC(NC4CC4)CC3)c3c2OCO3)cn2cc(C)nc2c1F [Compound 650, 7-[4-(cyclopropylamino)-1-piperidyl]-N-(8-fluoro-7-methoxy-2-methyl-imidazo[1,2-a]pyridin-6-yl)-1,3-benzodioxole-4-carboxamide] |  |  | 100 to 1000 nM | < 100 nM
15 |  |  |  | > 10000 nM |  | 1000 to 10000 nM | 1000 to 10000 nM | 1000 to 10000 nM | 1000 to 10000 nM | Cc1cn2cc(NC(=O)c3ccc(NC(=O)C4CCNC4)c4[nH]cnc34)cc(F)c2n1 (centres unmarked) [Compound 614, N-(8-fluoro-2-methyl-imidazo[1,2-a]pyridin-6-yl)-7-(pyrrolidine-3-carbonylamino)-1H-benzimidazole-4-carboxamide] |  |  | > 10000 nM | 1000 to 10000 nM
16 | 1000 to 10000 nM | > 10000 nM | > 10000 nM | 1000 to 10000 nM | 1000 to 10000 nM |  |  |  |  | COc1nc2nccn2cc1NC(=O)c1ccc(N2CCC(NC3CC3)CC2)c2cn(C)nc12 [Compound 598, 4-[4-(cyclopropylamino)-1-piperidyl]-N-(7-methoxy-imidazo[1,2-a]pyrimidin-6-yl)-2-methyl-indazole-7-carboxamide] | > 10000 nM | 1000 to 10000 nM |  | 
17 | > 10000 nM | > 10000 nM | > 10000 nM | > 10000 nM | > 10000 nM |  |  |  |  | CCNC1CCN(c2cc(F)c(C(=O)Nc3cn4cc(CC5CC5)nc4c(F)c3OC)c3nn(C)cc23)CC1 [Compound 336, N-[2-(cyclopropyl-methyl)-8-fluoro-7-methoxyimidazo-[1,2-a]pyridin-6-yl]-4-[4-(ethylamino)-1-piperidyl]-6-fluoro-2-methyl-indazole-7-carboxamide] | > 10000 nM | > 10000 nM |  | 
18 |  |  |  | 100 to 1000 nM |  | < 100 nM | > 10000 nM | > 10000 nM | < 100 nM | COc1nc2c(C(=O)Nc3cc(C#N)c4nn(C)cc4c3)ccc(N3C[C@H](C)N[C@@H](C)C3)c2s1 [Compound 757, N-(7-cyano-2-methyl-indazol-5-yl)-7-[(3S,5S)-3,5-dimethylpiperazin-1-yl]-2-methoxy-1,3-benzothiazole-4-carboxamide] |  |  | 1000 to 10000 nM | < 100 nM
19 |  |  |  | 1000 to 10000 nM |  | 100 to 1000 nM | 1000 to 10000 nM | 1000 to 10000 nM | 100 to 1000 nM | Cc1cn2c(N3CCC(NC4CC4)CC3)ccc(C(=O)Nc3cc(CO)c4nn(C)cc4c3)c2n1 [Compound 859] |  |  | 1000 to 10000 nM | 100 to 1000 nM
20 | 100 to 1000 nM | 1000 to 10000 nM | 1000 to 10000 nM | 100 to 1000 nM | 100 to 1000 nM |  |  |  |  | CCNC1CCN(c2ccc(C(=O)Nc3cc(Oc4cccc(C)c4)c4nc(C)cn4c3)c3nn(C)cc23)CC1 [Compound 327, 4-[4-(ethylamino)-1-piperidyl]-2-methyl-N-[2-methyl-8-(3-methylphenoxy)imidazo[1,2-a]pyridin-6-yl]indazole-7-carboxamide] | 1000 to 10000 nM | < 100 nM |  | 
